≈ marks a conversion by molar mass, not a printed value.
Legend:
[1] = tested on: S. cerevisiae; assay: S. cerevisiae IC50 (Table I); format: cell-based; settings: Saccharomyces cerevisiae
[2] = tested on: Calf thymus DNA; assay: DNA binding by change in melting of the DNA bound to the compounds (ΔTm); settings: 259 nm, 18° C./h heating; initial absorbance of 0.3A259
Experimental: DNA binding potency was determined for each of the compounds because previous work had determined that the binding of dicationic molecules to DNA is a prerequisite for their antimicrobial activity. See e.g., Tidwell, R. R., et al., Antimicrob. Agents Chemother. 37, 1713-1716 (1993); Bell, C. A., et al., Antimicrob. Agents Chemother. 35, 1099-1107 (1991). The DNA binding of the compounds was determined by the change in melting of the DNA bound to the compounds. The method is well documented and is a considered a standard method for determining DNA binding strength. See Cory, M. et al., J. Med. Chem. 25, 431-438 (1992). In brief, a UV-visible light spectrophotometer with a cuvette changer was interfaced to a microcomputer that recorded the cuvette temperature and DNA-absorbance data at 259 nm as the sample was heated at a rate of 18° C./h. Calf thymus DNA was used at an initial absorbance of 0.3A259. The midpoint of each denaturation curve was determined after graphic selection on the computer of the starting and ending absorbance temperature for each curve of each experiment. DNA or DNA bound to experimental compound was run in each experiment and the ΔTm s were determined from the polynucleotide TM for that experiment.

[3] = tested on: L1210 cells; assay: in vitro cytotoxicity, 3H-thymidine incorporation in L1210 cells; format: cell-based; settings: Mus musculus, 48 hours, 6 replicates
Text: Source: L1210 cells were obtained from the American Type Culture Collection (ATCC#CCL219). This line is a mouse lymphocytic leukemia line first described by E. Law et al., J. Natl. Cancer Inst. 10, 179-192 (1949) as a tumor arising in a mouse following skin paintings with 0.2% methycholanthrene. The first report of suspension culture was reported by G. Moore et al. J. Natl. Cancer Inst. 36, 405-421 (1966). This line has been used extensively for routine screening programs of chemical agents and natural products for cytotoxic activity and is also utilized in preliminary testing for antitumor activity by the NCI in cancer chemotherapy screening studies.
The in vitro cytotoxicity studies were performed essentially as described by Denizot and Lang, "Rapid calorimetric assay for cell growth and survival: Modification of tetrazolium dye procedure giving improved sensitivity and reliability", J. Immunological Methods 89, 271 (1986), but with the following modifications. Since many of the drugs had color interference, the viability of the cells was determined with a ^3 H-thymidine incorporation method. L1210 cells in DMEM +10% fetal calf serum were plated at 2.0×10^4 cells/well. An equal volume of test compound was added to each well diluted to 2× the final concentration in the above medium. Final drug concentrations ranged from 0.05 to 50 μM. After 24 hours at 37° C., 2.5 μCi of ^3 H-Thymidine (5 Ci/mmol) was added to each well. At 48 hours, the cells were harvested onto glass filters and radioactivity was measured with a scintillation counter.
The IC50 value was determined as the concentration leading to a 50% reduction of ^3 H-thymidine incorporation relative to control wells. Each value shown in Table 1, above, resulted from 6 replicates for each compound.

[4] = tested on: C. albicans; assay: standard in vitro fungal cell growth inhibition assay (broth dilution, M27-P), minimum fungicidal concentration; format: cell-based; settings: Candida albicans, A39 clinical isolate, RPMI media, inoculum 10^4 cells, less than 0.01% survival of original inoculum
Experimental: (§1) Activity of the compounds were assessed using a standard in vitro fungal cell growth inhibition assay (the broth dilution antifungal susceptibility testing of yeast, proposed standard document M27-P, validated by the National Committee for Clinical Laboratory Standards, 1992). Briefly, this broth dilution procedure uses RPMI media, and an inoculum of 10^4 cells. Control tubes contained media alone. After the minimal inhibitor concentration was determined by the above procedure, tubes with no visible growth were subcultured to determine the minimum fungicidal concentration by using criteria of less than 0.01% survival of original inoculum. Two organisms were tested: (1) H99, a clinical isolate of C. neoformans which is fully susceptible to azoles and polyenes in vitro and in vivo; and (2) A39, a clinical isolate of C. albicans which is fully susceptible to azoles and polyenes.
(§2) The MFC's (minimum fungicidal concentration) against these two important AIDS-associated fungal infections are shown in Table 1. MFCs were determined following the method of McGinnis.

[5] = tested on: C. neoformans; assay: as above; format: cell-based; settings: Cryptococcus neoformans, H99 clinical isolate, RPMI media, inoculum 10^4 cells, less than 0.01% survival of original inoculum
Experimental: as §1, §2

Structure (SMILES) | IC50 [1] [µM] | ΔTm DNA binding [2] [°C] | IC50 [3] [µM] | MFC [4] [µM] | MFC [5] [µM]
N=C(N)c1ccc2nc(-c3ccc(-c4nc5ccc(C(=N)N)cc5[nH]4)[nH]3)[nH]c2c1 [Compound 1, 2,5-bis(5-amidino-2-benzimidazolyl)pyrrole] | 45 | 18.1 | 0.21 | 5.71 (≈ 2.19 µg/mL) | 2.85 (≈ 1.09 µg/mL)
c1cc2[nH]c(-c3ccc(-c4nc5cc(C6=NCCN6)ccc5[nH]4)[nH]3)nc2cc1C1=NCCN1 [Compound 2, 2,5-bis-[5-(2-imidazolinyl)-2-benzimidazolyl]pyrrole] | < 1 |  | 1.07 | 26.8 (≈ 11.7 µg/mL) | 107 (≈ 46.6 µg/mL)
c1cc(-c2nc3cc(C4=NCCN4)ccc3[nH]2)nc(-c2nc3cc(C4=NCCN4)ccc3[nH]2)c1 [Compound 3, 2,6-bis[5-(2-imidazolinyl)-2-benzimidazolyl]pyridine] | 10 |  | 1.26 | 2.6 (≈ 1.16 µg/mL) | 5.2 (≈ 2.33 µg/mL)
Cn1c(-c2nc3ccc(C(=N)N)cc3[nH]2)ccc1-c1nc2ccc(C(=N)N)cc2[nH]1 [Compound 4, 1-Methyl-2,5-bis(5-amidino-2-benzimidazolyl)pyrrole] | 90 | 20.3 | 0.81 | 2.84 (≈ 1.13 µg/mL) | 5.69 (≈ 2.26 µg/mL)
Cn1c(-c2nc3cc(C4=NCCN4)ccc3[nH]2)ccc1-c1nc2cc(C3=NCCN3)ccc2[nH]1 [Compound 5] | > 100 | 22.5 | 1.51 | 5.09 (≈ 2.29 µg/mL) | 2.54 (≈ 1.14 µg/mL)
N=C(N)c1ccc2[nH]c(-c3cccc(-c4nc5cc(C(=N)N)ccc5[nH]4)n3)nc2c1 [Compound 7, 2,6-bis(5-amidino-2-benzimidazoyl)pyridine] | 95 | 15.3 | 13.6 | > 179 | > 179
c1cc(-c2nc3ccc(C4=NCCCN4)cc3[nH]2)nc(-c2nc3ccc(C4=NCCCN4)cc3[nH]2)c1 [Compound 8, 2,6-bis[5-(1,4,5,6-tetrahydro-2-pyrimidinyl)-2-benzimidazolyl]pyridine] | 304 | 14.8 | 3 | > 52 | 19 (≈ 9.05 µg/mL)
N=C(N)c1ccc2nc(-c3ccc(-c4nc5ccc(C(=N)N)cc5[nH]4)o3)[nH]c2c1 [Compound 9, 2,5-bis(5-amidino-2-benzimidazolyl)furan] |  |  |  | 6.44 (≈ 2.48 µg/mL) | 1.61 (≈ 0.619 µg/mL)
c1cc2[nH]c(-c3ccc(-c4nc5cc(C6=NCCN6)ccc5[nH]4)o3)nc2cc1C1=NCCN1 [Compound 10, 2,5-bis[5-(2-imidazolinyl)-2-benzimidazolyl]furan] |  |  |  | 5.21 (≈ 2.27 µg/mL) | 2.6 (≈ 1.13 µg/mL)
